IC50, Neutrophil adhesion inhibition and inhibition data for ten compounds are collected here from patent US20230150951A1, “2,5- OR 2,6-DISUBSTITUTED HYDROQUINONE DERIVATIVES WITH AT LEAST ONE CARBOXY, SULFO OR AMIDO GROUP USEFUL AS MEDICAMENTS” (OM PHARMA SA, priority 2020, published 2023).

Type in all cases: cell-based
One assay has as its target T1, FGF-2 (Homo sapiens, UniProt P09038).
T1 construct: purchased Peprotech 100-18C
Put plainly: FGF-2 induced sprouting of HUVEC, spheroid-based cellular angiogenesis assay. As to conditions: FGF-2 25 ng/mL preincubated with compound, 24 h. The protocol:
(§1) Aim of this in vitro method is to assess compounds effects on FGF-2, FGF-1, or VEGF-A induced sprouting of human umbilical vein endothelial cells (HUVEC) in the spheroid-based cellular angiogenesis assay. Before adding the growth factors to the cells, they were preincubated with the compound. Sunitinib was tested as a control (without preincubation).
(§2) IC50 values determined for the tested compounds are expressed in microM [μM] and the values for the inhibition of FGF-1, FGF2 and VEGF-A induced growth (sprouting) are listed after each compound in the examples after chemical characterization.
(§3) Sprouting test was performed on the compounds dissolved in DMSO to reach 100-fold concentrated stock solutions and dissolved in culture media. Sunitinib as reference compound was provided by ProQinase GmbH. Growth factors were purchased from rhFGF-basic (FGF-2), Peprotech, New Jersey, USA, #100-18C, Lot #0415571; rhFGF-acidic (FGF-1), Peprotech, New Jersey, USA, #100-17A, Lot #031207; hVEGF-A165 (ProQinase GmbH, Freiburg, Germany; 05.02.2010) were used for stimulation of HUVEC cells growth.
(§4) Test system: Endothelial cells from human umbilical vein (HUVEC) from pooled donors were stored frozen with 70% medium, 20% FCS, 10% DMSO at about 1×10^6 cells/ampoule. HUVEC cells, primary human umbilical vein endothelial cells (PromoCell, Heidelberg, Germany), were used after passage 3 to 4. Morphology of the cells are adherent, cobblestone-like growing as monolayer and were cultured in endothelial cell growth and basal medium (ECGM/ECBM, PromoCell). The subculture was split 1:3; every 3-5 days, seed out at ca. 1×10^4 cells/cm^2 and incubated at 37° C. with 5% CO2 with a doubling time 24-48 hours
(§5) Dilution of test compounds: 100× concentrated solutions (concerning to the final assay concentrations) of each test compound were prepared with the appropriate solvent (in DMSO or in water). These 100×compound solutions were further diluted in endothelial cell growth and basal medium (ECBM) 1:7.5 to get a 13.33× concentrated solution. 75 μl of the 13.33×solution was subsequently mixed with 25 μl of 40× concentrated stimulus (solved in ECBM), resulting in a 10×concentrated stimulus/compound mixture. This mixture (100 μl) was incubated for 30 min at 37° C. and then added to 900 μl gel, containing the HUVEC spheroids (resulting in the final assay concentration).
(§6) Test method: the experiments were pursued in modification of the originally published protocol (Korff and Augustin: J Cell Sci 112: 3249-58, 1999). In brief, spheroids were prepared as described (Korff and Augustin: J Cell Biol 143: 1341-52, 1998) by pipetting 400 HUVEC in a hanging drop on plastic dishes to allow overnight spheroid aggregation. 50 HUVEC spheroids were then seeded in 0.9 ml of a collagen gel and pipetted into individual wells of a 24 well plate to allow polymerization. The test compounds were preincubated with the growth factors (FGF-1, FGF-2 or VEGF-A final concentration 25 ng/mL) in a 10-fold concentrated solution and subsequently, 100 μl of this solution was added on top of the polymerized gel. All compounds were diluted in solvent (DMSO or water) as 100×stocks first (which means 100×stocks of each final assay concentration were prepared in solvent). Subsequently, these stocks were further diluted in medium (resulting in the 13.33×stocks of each final assay concentration) with final concentrations tested: 100, 50, 25, 12.5, 6.25, 3.13 and 1.56×10^−6 M). Plates were incubated at 37° C. for 24 hours and fixed by adding 4% PFA (Roth, Karlsruhe, Germany).
(§7) Quantification of growth factor inhibition: sprouting intensity of HUVEC spheroids treated with the growth factor and the inhibitors were quantitated by an image analysis system determining the cumulative sprout length per spheroid (CSL).

The test system of assay [1] is Human neutrophils. Put plainly: Neutrophil adhesion under static conditions. To be noted: fMLP-stimulated adhesion to fibrinogen; method: 40 μM and 80 μM, concentration of the value not stated. The protocol:
Human neutrophils obtained from buffy coats of healthy donors were suspended at 3×10^6/ml in adhesion buffer (PBS containing 1 mM CaCl2)/MgCl2 and 10% FCS, pH 7.2). Neutrophils were preincubated for 30 min at 37° C. with 40 μM and 80 μM of the compounds.
Adhesion assays were performed on 18-well glass slides coated for 18 h at 4° C. with human fibrinogen (20 μg/well in endotoxin-free PBS); 20 μl of cell suspension were added to each well and stimulated for 1 min at 37° C. with 5 μl of fMLP 1 nM final concentration. After washing, adherent cells were fixed in glutaraldehyde 1.5% in PBS and counted by computer-assisted enumeration. Statistical analysis was performed by calculating mean and standard deviation (SD); significance was calculated by unpaired t-test. All statistical analyses were performed using GraphPad Prism 6 (GraphPad Software).

The test system of assay [2] is Human neutrophils. As to the kind of experiment: Inhibition of ROS production in human neutrophils (isoluminol chemiluminescence). To be noted: Homo sapiens, Neutrophil, fMLP+TNF-α stimulated PMN. From the text: NADPH oxidase, located in the plasma membrane and in the membranes of specific granules, produces superoxide anions from which other ROS, such as hydrogen peroxide, singlet oxygen, hypochlorite, and active hydroxyl radicals. ROS are released into the surrounding medium or into a membrane-enclosed subcellular organelle. One quick and sensitive method for measuring the generation of these metabolites is chemiluminescence (CL). Isoluminol amplified CL technique, is very sensitive and widely used to study respiratory burst (mainly extracellular production of ROS) induced in neutrophils.
Human neutrophils were isolated from buffy coats which obtained from healthy donors. The isolated neutrophils (3×10^6/ml) were suspended in Hanks' Balanced Salt Solution (HBSS) with Calcium and Magnesium. Neutrophils were pre-incubated with the compounds at different concentrations (0.1, 0.3, 1, 3 and 10 μM) for 30 min at 37° C. The black 96-well cell culture plates were coated with human fibrinogen (0.25 mg/ml in PBS), and incubated overnight at 4° C. or 2 hr at 37° C. Then the plates were washed with endotoxin-free PBS. The neutrophils were incubated (priming) with TNF-α (20 ng/ml) for 10 minutes at 37° C. Thereupon the 75 μl of cell suspension and 75 μl (Isoluminol+HRP solution) were added to each well. The chemiluminescence was recorded (every 25 sec for 250 sec) after fMLP (1 μM) activation using a Multilabel Reader victor3 (Perkin Elmer, USA). Background values, defined as the mean chemiluminescent values of isoluminol diluted in HBSS, were subtracted from all readings (CPS, count per second). The assays were done in duplicate or triplicate.

For another assay, the target named is T2, VEGF-A (Homo sapiens, UniProt P15692).
T2 construct: purchased ProQinase GmbH
T2 sequence (P15692 27-191 isoform P15692-4): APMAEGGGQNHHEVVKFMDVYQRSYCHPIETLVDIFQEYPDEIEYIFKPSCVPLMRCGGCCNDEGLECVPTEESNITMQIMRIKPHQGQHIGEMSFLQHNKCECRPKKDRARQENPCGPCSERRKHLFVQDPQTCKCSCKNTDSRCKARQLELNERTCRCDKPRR
As to the kind of experiment: VEGF-A induced sprouting of HUVEC, spheroid-based cellular angiogenesis assay. As to conditions: VEGF-A 25 ng/mL preincubated with compound, 24 h, read-out: VEGF-A1 IC50. The protocol:
as §1, §2, §3, §4, §5, §6, §7

For the next assay, the target named is T3, VEGFR-2 (Homo sapiens, UniProt P35968).
T3 construct: endogenous in cells; host or cells: primary HUVEC
Put plainly: VEGF-165 induced phosphorylation of VEGF-Receptor on HUVEC. To be noted: HUVEC preincubated 60 min, VEGF165 25 ng/mL 2 min; read-out: VEGFR-Phosphorylation inhibition IC50. Here is the method:
Cell culture: Primary human umbilical vein endothelial cells (HUVECs) were routinely cultured in 0.1% gelatin pre-coated flasks or dishes, up to passage 6. […]
Rabbit primary antibodies for VEGFR-2, p-Tyr1175 were acquired from Cell Signaling Technology (Leiden, The Netherlands). Phospho-VEGFR-2 (Tyr1175) Sandwich ELISA Kit was from Cell Signaling Technology.
[…] Western blot analysis was performed using anti-phospho-VEGFR-2 antibody and total VEGFR-2 was used as a loading control after membrane stripping.
Inhibition of VEGFR-2-phosphorylation results are expressed as IC50 in microM [μM] versus VEGF-treated HUVECs control without inhibitory compound.

The next assay addresses T4, FGF-1 (Homo sapiens, UniProt P05230).
T4 construct: purchased Peprotech 100-17A
As to the kind of experiment: FGF-1 induced sprouting of HUVEC, spheroid-based cellular angiogenesis assay. To be noted: FGF-1 25 ng/mL preincubated with compound, 24 h. The protocol: as §1, §2, §3, §4, §5, §6, §7

SMILES strings stand for the structures.

T4 sequence (P05230 whole entry): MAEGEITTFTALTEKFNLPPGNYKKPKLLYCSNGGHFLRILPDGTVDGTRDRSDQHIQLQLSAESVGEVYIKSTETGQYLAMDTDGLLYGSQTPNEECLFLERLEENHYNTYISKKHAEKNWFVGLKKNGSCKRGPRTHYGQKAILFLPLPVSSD
T1 sequence (P09038 134-288): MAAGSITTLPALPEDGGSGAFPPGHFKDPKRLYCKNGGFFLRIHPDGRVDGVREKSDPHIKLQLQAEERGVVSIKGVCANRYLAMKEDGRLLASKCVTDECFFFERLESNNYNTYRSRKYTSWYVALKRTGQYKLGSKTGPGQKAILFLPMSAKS
T3 sequence (P35968 20-1356): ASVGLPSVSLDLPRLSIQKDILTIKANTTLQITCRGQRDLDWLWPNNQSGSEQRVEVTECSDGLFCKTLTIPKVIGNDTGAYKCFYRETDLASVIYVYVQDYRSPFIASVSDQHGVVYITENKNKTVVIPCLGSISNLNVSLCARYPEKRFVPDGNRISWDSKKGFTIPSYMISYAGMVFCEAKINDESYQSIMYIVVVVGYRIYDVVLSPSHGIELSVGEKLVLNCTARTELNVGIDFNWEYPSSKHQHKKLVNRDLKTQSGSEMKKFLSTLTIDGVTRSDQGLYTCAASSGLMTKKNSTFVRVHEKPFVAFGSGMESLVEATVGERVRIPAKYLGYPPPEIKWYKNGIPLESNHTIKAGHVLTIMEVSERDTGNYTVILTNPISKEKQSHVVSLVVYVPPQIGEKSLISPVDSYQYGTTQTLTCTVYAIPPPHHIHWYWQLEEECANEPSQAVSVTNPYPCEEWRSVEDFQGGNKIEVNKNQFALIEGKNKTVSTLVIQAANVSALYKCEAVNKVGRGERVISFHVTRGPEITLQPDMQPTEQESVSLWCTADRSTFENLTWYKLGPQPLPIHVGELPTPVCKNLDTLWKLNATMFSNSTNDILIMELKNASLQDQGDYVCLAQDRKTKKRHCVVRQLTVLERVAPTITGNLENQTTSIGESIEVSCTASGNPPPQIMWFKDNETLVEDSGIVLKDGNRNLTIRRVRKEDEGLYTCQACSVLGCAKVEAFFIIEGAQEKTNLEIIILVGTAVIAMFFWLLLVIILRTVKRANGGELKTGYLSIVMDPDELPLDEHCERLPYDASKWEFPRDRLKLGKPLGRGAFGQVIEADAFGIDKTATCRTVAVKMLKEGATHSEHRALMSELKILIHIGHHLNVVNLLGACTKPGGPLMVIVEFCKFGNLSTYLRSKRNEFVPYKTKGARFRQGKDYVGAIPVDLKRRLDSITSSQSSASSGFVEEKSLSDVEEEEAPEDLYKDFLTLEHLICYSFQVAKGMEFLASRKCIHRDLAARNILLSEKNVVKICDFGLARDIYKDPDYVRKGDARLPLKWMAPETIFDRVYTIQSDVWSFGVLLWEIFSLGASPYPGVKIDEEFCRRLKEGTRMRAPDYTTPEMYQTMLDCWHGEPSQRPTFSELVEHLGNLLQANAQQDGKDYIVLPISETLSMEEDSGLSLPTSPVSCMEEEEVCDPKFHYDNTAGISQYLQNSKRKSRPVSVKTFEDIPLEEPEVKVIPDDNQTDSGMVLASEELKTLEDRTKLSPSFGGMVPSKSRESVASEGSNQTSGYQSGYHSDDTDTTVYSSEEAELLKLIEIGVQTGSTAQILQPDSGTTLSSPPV

For the compound `CCOC(=O)Cc1cc(O)c(C(=O)Nc2cc(C(=O)OCC)cc(C(=O)OCC)c2)cc1O` [IIIa-015a-E3, diethyl 5-(4-(ethoxycarbonylmethyl)-2,5-dihydroxybenzamido)isophthalate], the IC50 (as a rule, the concentration at which inhibition is half-maximal) on FGF-2 came to 191 µM; at VEGF-A, 87 µM; at VEGFR-2 it was 7.2 µM. In the assay on Human neutrophils [1], this compound had a Neutrophil adhesion inhibition of 61.22%. The inhibition (commonly the share of the control response that was lost under treatment) at 0.3 µM in the assay with Human neutrophils [2] stood at 91.4%.

`O=C(O)c1cc(O)c(COCc2cc(O)c(C(=O)O)cc2O)cc1O` [IIIc-060a, 4-((2,5-Dihydroxy-4-carboxyphenyl)methoxymethyl)-2,5-dihydroxybenzoic acid]: the 50% inhibitory concentration (IC50) at FGF-2 stood at 51 µM; on VEGF-A, 114 µM; on VEGFR-2, 1.3 µM. Besides, the Neutrophil adhesion inhibition with Human neutrophils [1] came out at 41.38%. This compound also showed an inhibition at 0.3 µM with Human neutrophils [2] of 86.8%.

As for `O=C(O)c1cc(O)cc(C(=O)Nc2ccccc2-c2nnn[nH]2)c1O` [IIa-001a-Tz, 3-(2-(1H-tetrazol-5-yl)phenylaminocarbonyl)-2,5-dihydroxybenzoic acid], the results for the IC50 at FGF-2 and at VEGF-A were 9.8 µM and 187 µM, respectively. Besides, the Neutrophil adhesion inhibition in the assay with Human neutrophils [1] is 24.18%. Further, the inhibition at 0.3 µM in the assay with Human neutrophils [2] worked out at 74.2%.

Turning to `O=C(O)c1cc(O)ccc1NC(=O)c1cc(O)cc(C(=O)O)c1O` [IIa-006a, 3-(2-carboxy-4-hydroxyphenylaminocarbonyl)-2,5-dihydroxybenzoic acid], the IC50 at FGF-2 came out at 43 µM; at VEGF-A it was 121 µM; on VEGFR-2 it was 2.9 µM. Further, the Neutrophil adhesion inhibition with Human neutrophils [1] came out at 20.29%. This compound also registered an inhibition at 0.3 µM in the assay with Human neutrophils [2] of 84.3%.

`O=C(O)c1ccc(C(=O)O)c(NC(=O)c2cc(O)cc(C(=O)O)c2O)c1` [IIa-012a, 2-(3-carboxy-2,5-dihydroxybenzamido)terephthalic acid] displayed a Neutrophil adhesion inhibition in the assay with Human neutrophils [1] of 7.5%. The compound also gave an inhibition at 0.3 µM in the assay with Human neutrophils [2] of 44.8%. Besides, the IC50 in the assay with Human neutrophils [2] was 313 nM; on VEGF-A, 32 µM; on VEGFR-2, 3.31 µM.

Take `O=C(O)c1cc(O)c(C(=O)Nc2cnccc2C(=O)O)cc1O` [Ia-023a, 3-(4-carboxy-2,5-dihydroxybenzamido)isonicotinic acid]: the results for the IC50 on FGF-2, at VEGF-A and on VEGFR-2 were 63 µM, 143 µM and no less than 100 µM, respectively. The same compound displayed a Neutrophil adhesion inhibition in the assay on Human neutrophils [1] of 13.37%. This compound displayed an inhibition at 0.3 µM in the assay with Human neutrophils [2] of 62%.

With `CCOC(=O)c1cc(O)c(C(=O)Nc2cnccc2C(=O)OCC)cc1O` [Ia-023a-E2, ethyl 3-(4-(ethoxycarbonyl)-2,5-dihydroxybenzamido)isonicotinate], the IC50 on FGF-2 was determined as 76 µM; at VEGF-A it was 141 µM; on VEGFR-2, 6.6 µM. Further, the Neutrophil adhesion inhibition in the assay with Human neutrophils [1] is 34%. Moreover, 0.3 µM produced 69.5% inhibition with Human neutrophils [2].

In the case of `O=C(O)c1cc(O)c(C(=O)NCc2ccc(O)c(O)c2)cc1O` [Ia-035a, 4-(3,4-Dihydroxyphenylmethylaminocarbonyl)-2,5-dihydroxybenzoic acid], the IC50 on FGF-2 worked out at 71 µM; in the assay on Human neutrophils [2], 410 nM; at FGF-1, 20 µM; on VEGFR-2 it was 36 µM. In the assay on Human neutrophils [1], this compound showed a Neutrophil adhesion inhibition of 27%. Besides, the inhibition at 0.3 µM in the assay with Human neutrophils [2] is 75.1%.

Regarding `COC(=O)c1cc(NC(=O)c2cc(O)c(C(=O)Nc3ccc(O)c(C(=O)OC)c3)cc2O)ccc1O` [Ic-007a-E2, methyl 5-(2,5-dihydroxy-4-(4-hydroxy-3-(methoxycarbonyl)phenylaminocarbonyl)benzamido)-2-hydroxybenzoate], the IC50 came out at 49 µM on FGF-2, 7900 nM with Human neutrophils [2], 23 µM at FGF-1 and 0.25 µM on VEGFR-2. The compound also came in with a Neutrophil adhesion inhibition with Human neutrophils [1] of 2%. In the assay with Human neutrophils [2], the inhibition at 0.3 µM was found to be 21.3%.

As for `COC(=O)c1cc(O)ccc1NC(=O)c1cc(O)c(C(=O)Nc2ccc(O)cc2C(=O)OC)cc1O` [Ic-009a-E2, methyl 2-(2,5-dihydroxy-4-(4-hydroxy-2-(methoxycarbonyl)phenylaminocarbonyl)benzamido)-5-hydroxybenzoate], the IC50 on FGF-2 came out at 30 µM; at FGF-1, 23 µM; on VEGFR-2, 0.02 µM. This compound also returned a Neutrophil adhesion inhibition with Human neutrophils [1] of 41.05%. The same compound displayed an inhibition at 0.3 µM in the assay on Human neutrophils [2] of 24.1%.
